{
  "source": "ChEMBL document CHEMBL3244182",
  "about": "“Potential bis-alkylating agents for cancer chemotherapy. Approaches to the synthesis of 2-sulfonyl-1,4-bis(methanesulfonoxy)butanes” (1978)",
  "key": {"KB": {"tested_on": "KB", "test": "In vitro antitumor activity against human KB cells treated as an alcoholic solution", "type": "functional", "conditions": "read-out: ED50 (the source's name)"}, "P388 [1]": {"tested_on": "P388", "test": "In vivo antitumor activity against mouse P388 cells allografted in BDF1 mouse at 400 mg/kg, ip administered as three doses as suspension in klucel", "type": "functional, organism-based", "design": "dose 400 mg/kg"}, "L1210 [2]": {"tested_on": "L1210", "test": "In vivo antitumor activity against mouse L1210 cells allografted in BDF1 mouse at 400 mg/kg, ip administered as three doses as suspension in klucel", "type": "functional, organism-based", "design": "dose 400 mg/kg"}, "L1210 [3]": {"tested_on": "L1210", "test": "In vivo antitumor activity against mouse L1210 cells allografted in BDF1 mouse at 400 mg/kg, ip administered as single dose as suspension in saline", "type": "functional, organism-based", "design": "dose 400 mg/kg"}, "L1210 [4]": {"tested_on": "L1210", "test": "In vivo antitumor activity against mouse L1210 cells allografted in BDF1 mouse at 400 mg/kg, ip administered as nine doses as suspension in klucel", "type": "functional, organism-based", "design": "dose 400 mg/kg"}, "P388 [5]": {"tested_on": "P388", "test": "In vivo antitumor activity against mouse P388 cells allografted in CDF1 mouse at 200 mg/kg, ip administered as nine doses as suspension in klucel", "type": "functional, organism-based", "design": "dose 200 mg/kg"}, "L1210 [6]": {"tested_on": "L1210", "test": "In vivo antitumor activity against mouse L1210 cells allografted in BDF1 mouse at 200 mg/kg, ip administered as nine doses as suspension in saline with Tween 80", "type": "functional, organism-based", "design": "dose 200 mg/kg"}, "L1210 [7]": {"tested_on": "L1210", "test": "In vivo antitumor activity against mouse L1210 cells allografted in BDF1 mouse at 400 mg/kg, ip administered as single dose as suspension in CMC", "type": "functional, organism-based", "design": "dose 400 mg/kg"}},
  "note": "Calls of active or inactive are those of the source. No cut-off for these calls is given here.",
  "data": [
    {"smiles": "CCCCCCCCCCCS(=O)(=O)C(CCOS(C)(=O)=O)COS(C)(=O)=O", "note": "(racemic)", "values": [
      {"measurement": "EC50", "setting": "KB", "result": 31, "unit": "µg/mL"},
      {"measurement": "Activity", "setting": "P388 [1]", "result": "inactive"},
      {"measurement": "Activity", "setting": "L1210 [2]", "result": "inactive"}
    ]},
    {"smiles": "CCCCS(=O)(=O)C(CCOS(C)(=O)=O)COS(C)(=O)=O", "note": "(racemic)", "values": [
      {"measurement": "Activity", "setting": "L1210 [3]", "result": "inactive"}
    ]},
    {"smiles": "COc1ccc(OCCS(=O)(=O)C(CCOS(C)(=O)=O)COS(C)(=O)=O)cc1", "note": "(racemic)", "values": [
      {"measurement": "Activity", "setting": "L1210 [4]", "result": "inactive"}
    ]},
    {"smiles": "COc1ccccc1C(=O)Nc1cc2c(cc1N1CCNCC1C)n(C)c(=O)n2C", "note": "(racemic)", "values": [
      {"measurement": "Activity", "setting": "P388 [5]", "result": "inactive"}
    ]},
    {"smiles": "CS(=O)(=O)OCCC(COS(C)(=O)=O)S(=O)(=O)CCCOc1ccccc1-c1ccccc1", "note": "(racemic)", "values": [
      {"measurement": "Activity", "setting": "L1210 [6]", "result": "inactive"}
    ]},
    {"smiles": "CS(=O)(=O)OCCC(COS(C)(=O)=O)S(=O)(=O)Cc1ccccc1", "note": "(racemic)", "values": [
      {"measurement": "Activity", "setting": "L1210 [3]", "result": "inactive"}
    ]},
    {"smiles": "CS(=O)(=O)OCCC(COS(C)(=O)=O)S(=O)(=O)c1ccccc1", "note": "(racemic)", "values": [
      {"measurement": "Activity", "setting": "L1210 [7]", "result": "inactive"}
    ]}
  ]
}
